Tests used:
Format in all cases: cell-based
Set-up in all cases: expressed in transfected cells; host or cells: HEK-293/EBNA (baculovirus transduction, NaBu induction)
[1] = target: T1, α1A-AR (Homo sapiens, UniProt P35348); assay: IP accumulation (IP-One HTRF) in α1A-AR transduced HEK-293/EBNA cells; settings: α1A-AR transduced HEK-293/EBNA; Iso up to 10 mM
T1 sequence (P35348 1-466): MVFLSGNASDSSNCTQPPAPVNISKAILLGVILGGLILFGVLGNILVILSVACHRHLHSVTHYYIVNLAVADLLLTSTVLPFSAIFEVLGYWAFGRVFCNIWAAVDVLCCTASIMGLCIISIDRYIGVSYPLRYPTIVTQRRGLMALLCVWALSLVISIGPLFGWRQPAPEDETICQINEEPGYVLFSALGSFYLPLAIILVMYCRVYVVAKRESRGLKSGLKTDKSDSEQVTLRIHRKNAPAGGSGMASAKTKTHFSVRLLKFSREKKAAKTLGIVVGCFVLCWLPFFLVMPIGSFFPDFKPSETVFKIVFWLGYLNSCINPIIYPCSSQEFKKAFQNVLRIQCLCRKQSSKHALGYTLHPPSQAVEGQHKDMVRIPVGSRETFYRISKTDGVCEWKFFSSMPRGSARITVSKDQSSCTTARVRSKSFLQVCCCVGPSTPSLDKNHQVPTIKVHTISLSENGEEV
Experimental: (§1) Prior to experiments, cells were transduced with baculovirus strains designed for transient expression of α1A-AR or aldehyde oxidase (negative control). This was performed by incubating cells with virus (MOI 100–150) for 3 to 4 h, followed by exchange into fresh serum free growth medium supplemented with 4 mM sodium butyrate (NaBu). Cells were grown for another 14 to 18 h and then examined for agonist-evoked responses in transient Ca^2+ release, IP accumulation or pERK activation assays. The surface receptor expression density was determined by flow cytometry via immunofluorescence labeling of an N-terminal HA epitope tag on the receptor and radioligand binding in partially purified membranes.
After 10–20 minutes, 10 μL of agonist was added followed by incubation for 5 to 30 minutes. Stimulation was stopped by addition of lysis buffer. Second messenger levels were determined using a homogeneous immunoassay method with time-resolved FRET detection (IP-One HTRF, Cisbio International) according to protocols provided by the supplier. Sample fluorescence was measured with a Nanoscan plate reader (IOM, Berlin). Each data point represents the average of quadruplicate determinations and each experiment was performed at least two times independently.

[2] = target: T1, α1A-AR; assay: Ca2+ transient response (FLIPR, fluo3) in α1A-AR transduced HEK-293/EBNA cells
Experimental: as §1
Cells were resuspended in Hank’s balanced salt solution (Invitrogen) supplemented with 2 mM CaCl2, 10 mM HEPES pH 7.4, 2.5 mM probenecid, plus 1g/L each of glucose and bovine serum albumin (BSA), and seeded in poly-D-lysine coated 96-well black plates with transparent bottom (Costar) at a density of 50,000 cells/0.1 mL per well. Cells were then incubated for 1 h at 37°C with an additional 0.1 mL of buffer containing 4 μM fluo3-AM that was diluted from a stock solution containing 1 mM fluo3-AM dye in DMSO with 10% pluronic acid. After dye loading incubation, plates were washed twice with 100 μL of buffer and refilled with 100 μL of assay buffer. In experiments testing the effect of antagonists, 25 μL of buffer from wells of washed cells were replaced with 25 μL of vehicle or 4× antagonist solution. Pre-incubation of ligand with dye-loaded cells proceeded for 5–30 minutes immediately prior to measurements of agonist-evoked responses. Agonist-evoked Ca^2+ mobilization responses of cell populations were monitored at room temperature simultaneously in all wells of the assay plate using the plate-imaging fluorometric reader FLIPR (MDS Analytical Technologies, Sunnyvale, CA). […] The amplitudes of Ca^2+ transient responses are reported as ΔF/F0, or fold-change in Ca^2+ dye fluorescence relative to the baseline signal ΔF/F0 = (F-F0)/F0 +1 (where ΔF is maximal fluorescence intensity observed following agonist application, F0 = baseline fluorescence, or average intensity measured over the 10 s interval prior to agonist application). Image acquisition rates were varied from 1 Hz during the first 100 s of measurements to 0.5 Hz for the remaining time of the recording.
Graphs shown reflect either pooled or representative data (see figure legends). For concentration-response analysis, results from Ca^2+ mobilization experiments were plotted as ΔF/F0 vs. agonist concentration and fit to a sigmoidal concentration-response equation using the GraphPad Prism software package. In cases where biphasic concentration-response curves were observed data were fit to a two-site concentration-response model: F(X)=R0+(Rmax−R0)[Fr1/(1+10^X-logEC50,1)+(1−Fr1)/(1+10^X-logEC50,2)] (1) , where X is the logarithm of the agonist concentration, R0 and Rmax are respectively the response minimum and maximum; Fr1 is the response fraction attributable to receptor characterized by half effective concentration of the first response phase (EC50,1), with the reminder response attributable to the second half effective concentration (EC50,2). For radioligand binding experiments, B max values were calculated from maximum binding using the equation B max = (SB × ([…] + [L])/[L]), where SB is the specific binding expressed as fmol per mg of membrane protein, and [L] is the ligand concentration.

[3] = target: T1, α1A-AR; assay: LC-MS detection of IP1, IP2 and IP3 in α1A-AR transduced HEK-293/EBNA cells; settings: Iso up to 10 mM
Experimental: Virally transduced HEK-293/EBNA cells were resuspended in growth medium and seeded in poly-D-lysine coated 96-well black plates at a density of 100,000 cells/0.1 mL per well, Cells were allowed to attach for 2 hours at 37°C in a humidified atmosphere of 95% air and 5% CO2. After that, the medium was replaced with agonist solution in assay buffer (20 mM HEPES, 10 mM glucose, 1.8 mM CaCl2, 0.5 mM MgSO4, in HBSS 1X buffer, 50 mM LiCl) and cells were incubated at 37°C for 30 min. Stimulation was stopped by exchange of assay buffer with lysis buffer (100 μL 0.1N HCl/MeOH), and lysis proceeded for 30 min at 4°C. Cellular levels of inositol phosphates were determined using a Thermo LC-MS detection system following a published protocol. Chromatography was performed employing a BioBasic column AX (50 × 2.1 mm, Thermo). The mobile phase consisted of solvent A: 10 mM ammonium acetate, pH 6 in 30/70 acetonitrile/water, and solvent B: 1 mM ammonium acetate, pH 11 in 30/70 acetonitrile/water. A gradient solvent system was used starting with 0% solvent B, and analytes were eluted by increasing solvent B to 100% over 3 min. Each data point represents the average of triplicate determinations and each experiment was performed at least three times independently.

CC(C)NCC(O)c1ccc(O)c(O)c1 (stereo not shown) [Iso, isoproterenol]
IP accumulation [1]: no significant accumulation of IP was detected
maximal response amplitude ΔF/F0 in presence of ICI 118,551 [2]: 1.3
magnitude ΔF/F0 in presence of RS100329 ([2]; 10 nM RS100329 pretreatment): 1.2
ΔF/F0, β2-AR-dependent phase ([2]; pertussis toxin 100 ng/mL, 18 h): 1.5
ΔF/F0, β2-AR-dependent phase ([2]; vehicle (no PTX), Fig. 4B): 1.3
diminution of low potency phase of response in absence of extracellular Ca2+ ([2]; α1A-AR transduced cells): approximately 50%
cellular levels of inositol phosphates IP1, IP2 and IP3 [3]: no significant changes

Reference: publication PMC4301629 (PLoS ONE, 2015)
